Patent US8557795B2, “Composition containing Chamaecyparis obtusa polysaccharides to be externally applied to the skin” (Amorepacific Corporation, priority 2009, dated 2013)

Tests used:
[1] = test system: transglutaminase; assay: Expression of transglutaminase in human keratinocytes; format: cell-based; details: Ca^2+ 1.2 mM (positive control); relative to 100 for low calcium (0.03 mM) control
Method: Human skin cells were placed in a 96-well plate at a concentration of 5×10^4 cells/well and attached to the plate for 24 hours. The attached skin cells were treated with the test material, and after 2 days, the medium was removed, and the cells were stored in a refrigerator at […]. The cells were frozen and thawed twice, disrupted and treated with acetone:ethanol (1:1, v/v), stored at −20° C. The treated cells were left to stand at 4° C. for 30 minutes to immobilize the cells. Then, the cells were left to stand at room temperature to evaporate the organic solvent and were blocked with 1% bovine serum albumin. The blocked cells were treated with transglutaminase antibody (primary antibody) and HRP anti-mouse antibody (secondary antibody), and the color development of the cells was carried out by the addition of OPD (o-phenyldiamine). The expression level of transglutaminase in the cells was measured by measuring the absorbance at 490 nm, and the correction was carried out by measuring the background at 630 nm. A low calcium (0.03 mM)-treated group and a high calcium (1.2 mM)-treated group were used as a negative control group and a positive control group, respectively. Each of the measurement values was calculated relative to 100 for the negative control (low calcium concentration), and the results of the calculation are shown in Table 7 below.

[2] = test system: human keratinocytes; assay: Induction of differentiation of human keratinocytes (cornified envelop amount); format: cell-based; details: Ca^2+ 1.2 mM (positive control); relative to 100 for low calcium (0.03 mM) control
Method: The effect of the Chamaecyparis obtusa polysaccharide of the present invention on the promotion of cell differentiation was examined by measuring the amount of CE (cornified envelop) produced during differentiation of keratinocytes and a human keratinocyte cell line (HaCaT).
Primarily cultured human keratinocytes were placed in a culture flask and allowed to adhere to the bottom of the flask, and then calcium and the Chamaecyparis obtusa polysaccharide were added to the culture media at varying concentrations. The cells were cultured for 5 days to a confluency of about 70-80%. The cultured cells were harvested and washed with PBS (phosphate buffered saline), and then 1 ml of 10 mM Tris-HCl buffer (pH 7.4), containing 2% SDS (sodium dodecyl sulfate) and 20 mM DTT (dithiothreitol), was added to the cells. The cell solution was sonicated, boiled and centrifuged, and the resulting precipitate was suspended in 1 ml of PBS and measured for absorbance at 340 nm. Meanwhile, a portion of the solution after the sonication was taken and measured for its protein content, and the measured value was used as a standard for evaluating the degree of cell differentiation. […] Each of the measurement values was calculated relative to 100 for the negative control (low calcium concentration), and the results of the calculation are shown in Table 6 below.

[3] = test system: human skin; assay: Whitening effect on UVB-darkened human skin (colorimeter); format: in vivo; details: UVB-darkened upper arm; 10 weeks of application; solvent control 0.51 ± 0.13
Method: In order to examine the whitening effect of the Chamaecyparis obtusa polysaccharide of the present invention on the human skin, the following test was carried out. First, on 12 healthy men as subjects, a 1.5-cm perforated opaque tape was attached to the upper arm portion of the subjects, and then the attached portion was radiated with UVB at a dose about 1.5-2 times the minimal erythema dose of each subject to induce skin darkening.
The color of the skin was measured with a colorimeter CR2002 (Japan, Minolta). Then, the difference (ΔL*) in skin color between the time point of initiation of application and the time point of completion of application (after 10 weeks) of each test material was calculated according to the following equation 3, and the results of the calculation are shown in Table 5 below.
Meanwhile, the skin whitening effect is evaluated by measuring the ΔL* value between the sample-applied portion and the control portion. […] Difference (ΔL*) skin color=L*value at the time of completion of application−L*value at the time of initiation of application [Formula 3]

[4] = test system: type I procollagen; assay: Type I procollagen assay (ELISA) in human normal fibroblasts; format: cell-based; details: 10 ng/Ml; positive control set to 100
Method: Human normal fibroblasts were cultured in a 12-well culture plate at a concentration of 10^5 cells/well, and then the medium was replaced with each of media containing 1 ppm, 10 ppm and 50 ppm of the Chamaecyparis obtusa polysaccharide obtained in Preparation Example 1. As a positive control, TGF-β (Human Transforming Growth Factor-β1, Roche Co.) was used. At 3 days of culture, the cells were harvested, and the amount of type I procollagen produced in the cells was measured by an ELISA assay. Each of the measurement values was calculated relative to 0 for a control containing no Chamaecyparis obtusa polysaccharide and 100 for the positive control, and the results of the calculation are shown in Table 1 below.

[5] = test system: MMP-1 (matrix metalloproteinase I); assay: Inhibition of UV-B-induced MMP-1 biosynthesis in human normal fibroblasts (ELISA); format: cell-based; details: irradiated with UV-B 40 mJ/cm^2; 10 μM; 2 days; non-irradiated control 100, UV alone 152
Method: Human normal fibroblasts were cultured in a 12-well culture plate at a concentration of 10^5 cells/well, and then irradiated with 40 mJ/cm^2 of UV-B, after which the medium was replaced with a medium containing each of 1 ppm, 10 ppm and 50 ppm of the Chamaecyparis obtusa polysaccharide obtained in Preparation Example 1. At 2 days of culture, the cells were harvested, and the amount of MMP-1 (matrix metalloproteinase I) produced in the cells was measured by an ELISA assay. As a positive control, retinoic acid (RA, Sigma, USA) was used. Each of the measurement values was calculated relative to […] for a control containing no Chamaecyparis obtusa polysaccharide and which was not irradiated with UV-B. The results of the calculation are shown in Table 2 below.

[6] = test system: C57BL/6 mouse melanocytes (Mel-Ab cells); assay: Melanin production inhibitory effect using mouse melanocytes; format: cell-based; details: 72 h, 3 days
Method: Mouse melanocytes were used to examine the melanin production inhibitory effect of the Chamaecyparis obtusa polysaccharide of the present invention. First, C57BL/6 mouse melanocytes (Mel-Ab cells) (Dooley, T. P. et al, Skin pharmacol, 7, pp 188-200) were cultured in DMEM (Dulbeccos modified Eagles media), containing 10% fetal bovine serum, 100 nM 2-O-tetradecanoyphorbol-13-acetate and 1 nM cholera toxin, in conditions of 37° C. and 5% CO2. The cultured Mel-Ab cells were detached with 0.25% trypsin-EDTA and cultured in a 24-well culture plate at a concentration of 10^5 cells/well. Then, from 2 days of culture, each of 10 ppm, 50 ppm and 100 ppm of the Chamaecyparis obtusa polysaccharide was continuously added thereto and cultured for 3 days. Herein, arbutin was used as a positive control. Then, the media were removed, and the cells were washed with PBS and lysed with 1N sodium hydroxide. The lysed cells were measured for absorbance at 400 nm, and based on the measured absorbance, the inhibition (%) of melanin production was calculated according to the following equation 2. Inhibition (%) of melanin production=100−(absorbance of each test material/absorbance of control×100) [Equation 2]

[7] = test system: TPA-induced mouse ear inflammation; assay: TPA-induced mouse ear inflammation model; format: in vivo, ICR mice; details: 24 hours after TPA, polysaccharide 0.5% in 80% ethanol, indomethacin 0.5 mg/ear
Method: The tetradecanoyl phorbol acetate (TPA)-induced mouse ear inflammation model is an experimental method which is widely used to test the mechanism of action of inflammatory responses and the effect of inhibitors (De Young L M et al., Agents and Actions, 26; 335-341 (1989)). In order to confirm the inflammation inhibitory effect of the Chamaecyparis obtusa polysaccharide, 8-week-old male ICR mice (8 animals per group) were prepared. The test group was treated with TPA and applied with a solution of the Chamaecyparis obtusa polysaccharide dispersed in a 80% ethanol aqueous solution, the untreated group was applied with a 80% ethanol aqueous solution alone without treatment with TPA, the negative control group was treated with TPA and applied with a 80% ethanol aqueous solution alone, and the positive control group was treated with TPA and applied with 0.5 mg of indomethacine (Sigma, USA) in place of the Chamaecyparis obtusa polysaccharide. […] The mice of the untreated group, the negative control group and the positive control group were also treated as described above. At 24 hours after application of TPA, the mice were euthanized by cervical dislocation, and the left ear was sampled in a given area, and the weight thereof was measured. […] The inhibition (%) is calculated according to the following equation 4. […]

Compound: [Ca+2] [Ca^2+, calcium]
- Expression (%) of transglutaminase [1]: 138%
- Differentiation (%) of keratinocytes [2]: 215%

Compound: Oc1ccc(O)cc1 [Hydroquinone, hydroquinone]
- Difference (ΔL*) in skin color [3]: 1.89 ± 0.15

Compound: TGF-β: Human Transforming Growth Factor-β1, Roche Co.; positive control
- Type I procollagen biosynthesis (%) [4]: 100%

Compound: CC1=C(/C=C/C(C)=C/C=C/C(C)=C/C(=O)O)C(C)(C)CCC1 [RA, retinoic acid]
- MMP-1 biosynthesis (%) [5]: 45%

Compound: OC[C@H]1O[C@@H](Oc2ccc(O)cc2)[C@H](O)[C@@H](O)[C@@H]1O [Arbutin, arbutin]
- inhibition at 100 ppm [6]: 52%

Compound: COc1ccc2c(c1)c(CC(=O)O)c(C)n2C(=O)c1ccc(Cl)cc1 [Indomethacin, indomethacine]
- Inhibition (%) (mean) [7]: 92%
- Ear weight (mean ± SD) ([7]; untreated 6.64 ± 0.65, TPA alone 13.21 ± 2.49): 7.20 ± 0.57
